Results on one substance are retold here after patent publication US20180051284A1, “INHIBITORS OF MIR-17-92 CLUSTER FOR ANTI-TUMOR ACTIVITY IN MULTIPLE MYELOMA AND OTHER MALIGNANCIES” (priority 2014, published 2018).

One data set concerns panel of MM cell lines. Briefly: CCK-8 cell growth analysis of a panel of MM cell lines after transfection. The class given is cell-based, Human. The conditions noted are these: transfection 50-25-12,5 nM; up to 96 hours. How it is done: 3×10^5 cells were transfected using Neon Transfection System (Invitrogen, Calif.,U.S.), (2 pulses at 1150, 30ms). The transfection efficiency evaluated by flow-cytometric analysis relative to a FAM dye—labeled anti-miR—negative control reached 85% to 90%.
(§1) Cells were seeded in 100 μL (suspension cell lines) or 50 μL (adherent cell lines) of culture medium at a density ranging from 0,5 to 2,5×10^3 cells per well. Survival was evaluated by both Cell Counting Kit-8 colorimetric assay (CCK-8, Dojindo Molecular Technologies, Japan) and CellTiter-Glo Luminescent Cell Viability Assay (Promega Madison, Wis., USA). Assays were performed according to the manufacturer's instructions. The optical density (OD) was evaluated at wave length of 450 nm. Both OD and luminescence were recorded with the GloMax-multi detection system (Promega, Madison, Wis., USA).

Another data set concerns U266 cells. Briefly: U266 orthotopic model of human MM (IVIS). The class given is in vivo, mice. As to conditions: I.P. 2 mg/kg at day 1-4-8-15-22; compared to controls. An excerpt: Male CB-17 severe combined immunodeficient (SCID) mice (6- to 8-weeks old; Harlan Laboratories, Inc., Indianapolis) were housed and monitored in our Animal Research Facility. All experimental procedures and protocols had been approved by the Institutional Ethical Committee (Magna Graecia University) and conducted according to protocols approved by the National Directorate of Veterinary Services (Italy). In accordance with institutional guidelines, mice were sacrificed when tumors reached 2 cm in diameter or in the event of paralysis or major compromise, to prevent unnecessary suffering. […] Mice were also inoculated with 5×10^6 luciferase gene-marked U266, AMO-1, AMO-1/abzb, treatments were performed intraperitoneally (i.p.), and tumor volume were measured by IVIS Lumina II.
The in vivo activity of gapmer_06 was also evaluate in a orthotopic model of human MM using U266 cells, to explore the efficacy in relation to the microenvironment. […] Tumor growth was monitored using IVIS LUMINA II Imaging System. […] Engraftment was determined by sacrificing mice after 10 weeks and analyzing bone marrow for luciferase gene-marked U266 cells. […] Mice were treated I.P. with gapmer_06 at concentration of 2 mg/kg at day 1-4-8-15-22, and serum shulL-6R levels were serially determined as a marker of tumor growth.

Data set [1] relates to Capan1, MCF7, MDA231, LXF-289, A-549, NCI-H82, 5637, BCMW.1 and MPM-209 cells. Briefly: CCK-8 proliferation of non-myeloma cancer cell lines after gymnotic exposure. The class given is cell-based, Human. The conditions noted are these: 6 days gymnotic exposure, 0-2,5-5-10 μM. How it is done: Cells were seeded at low plating density in order to reach confluence on the final day of the experiments (day 6). Cell number at plating ranged from 0.5 to 2.5×10^3 in 96-well plates, from 2.5 to 10×10^3 in 12-well plates and from 1 to 3×10^4 in 6-well plates.
as §1
Specifically, we gymnotically exposed for 6 days to 0-2,5-5-10 μM of gapmer_06, the following cell lines: Capan1 pancreatic cancer cells, MCF7 and MDA231 breast cancer cells, LXF-289, A-549 and NCI-H82 lung cancer cells, 5637 bladder cancer cells, BCMW.1 Waldenstrom Macroglobulinemia cells and MPM-209 mesothelioma cells.

l = locked nucleic acid (LNA); d = 2'-deoxy (DNA)

For the substance “gapmer_06: LNA/DNA gapmer, SEQ ID 4 (14 mer): +T*+A*+C*T*T*G*C*T*T*G*G*+C*+T*+T; + LNA, * phosphorothioate (antisense TACTTGCTTGGCTT; sugars from the 5' end l3 d8 l3, all phosphorothioate, methylation of C not given here)”, the “anti-proliferative activity (CCK-8 assay)” value in the data set with panel of MM cell lines is “exerted anti-proliferative activity up to 96 hours after transfection in all myeloma cell lines tested”. In the data set with U266 cells, the “tumor growth (IVIS)” value is on record as “significant tumor-growth inhibition”. Further, the “proliferation (CCK-8 cell growth analysis)” value in data set [1] is given as “impair proliferation of all cell lines”.
